According to patent US9221815B2, “Solid state form of vemurafenib choline salt” (ratiopharm GmbH, priority 2012, dated 2015):
Like-named read-outs stand apart in the source and are kept apart here. One block for each compound: values may come before it.

Legend:
[1] = amorphous form; cited from earlier work
[2] = in accordance with WO 2010/114928 and WO 2010/129570; cited from earlier work

Compound: CCCS(=O)(=O)Nc1ccc(F)c(C(=O)c2c[nH]c3ncc(-c4ccc(Cl)cc4)cc23)c1F [Amorphous Vemurafenib]
Stability (in words) [1]: not stable

Period stable upon storage (45° C. and 75% relative humidity (RH)): at least 2 weeks
Period stable upon storage (ambient conditions (room temperature and atmospheric humidity)): at least 7 months
Compound: CCCS(=O)(=O)Nc1ccc(F)c(C(=O)c2c[nH]c3ncc(-c4ccc(Cl)cc4)cc23)c1F.C[N+](C)(C)CCO [Vemurafenib Choline crystalline C1]

Compound: CCCS(=O)(=O)Nc1ccc(F)c(C(=O)c2c[nH]c3ncc(-c4ccc(Cl)cc4)cc23)c1F [Vemurafenib, propane-1-sulfonic acid {3-[5-(4-chlorophenyl)-1H-pyrrolo[2,3-b]pyridine-3-carbonyl]-2,4-difluoro-phenyl}-amide]
Solubility (in words) [2]: extremely low solubility
